Measured values reported in ChEMBL document CHEMBL5244277, “A review upon medicinal perspective and designing rationale of DPP-4 inhibitors” (Bioorg Med Chem, 2021).
pIC50: −log10 of the molar value.

How the values were obtained:
[1] = Metabolic stability in rat liver microsome assessed as parent compound remaining; format: ADME; settings: microsomes
Mus musculus [2] = experiment: Hypoglycemic activity in mouse assessed as reduction in blood glucose level at 10 mg/kg measured after 120 mins; format: ADME, organism-based; parameters: scale not given: the % may be the effect or the level left; settings: in vivo, 2 h
[3] = Biovailability in mouse at 3 to 10 mg/kg, iv; format: ADME, organism-based; settings: in vivo, dose 3-10 mg/kg
[4] = Half life in mouse at 3 to 10 mg/kg, iv; format: ADME, organism-based; settings: in vivo, dose 3-10 mg/kg
Dipeptidyl peptidase 8 = Dipeptidyl peptidase 8 (Homo sapiens, UniProt Q6V1X1); experiment: Inhibition of human recombinant DPP-8
[5] = Clearance in mouse at 3 to 10 mg/kg, iv; format: ADME, organism-based; settings: in vivo, dose 3-10 mg/kg
Dipeptidyl peptidase 9 = Dipeptidyl peptidase 9 (Homo sapiens, UniProt Q86TI2); experiment: Inhibition of human recombinant DPP-9
[6] = Cytotoxicity against human L02 cells assessed as cell viability after 72 hrs by MTT assay; format: toxicity, cell-based; settings: read-out: Activity
[7] = Metabolic stability in rat plasma assessed as parent compound remaining; format: ADME, cell-free
Dipeptidyl peptidase 4 [8] = biological target: T1, Dipeptidyl peptidase 4 (Homo sapiens, UniProt P27487); experiment: Inhibition of DPP-4 (unknown origin) using (H-Gly-Pro-AMC) as substrate
Target sequence in this assay (P27487 whole entry): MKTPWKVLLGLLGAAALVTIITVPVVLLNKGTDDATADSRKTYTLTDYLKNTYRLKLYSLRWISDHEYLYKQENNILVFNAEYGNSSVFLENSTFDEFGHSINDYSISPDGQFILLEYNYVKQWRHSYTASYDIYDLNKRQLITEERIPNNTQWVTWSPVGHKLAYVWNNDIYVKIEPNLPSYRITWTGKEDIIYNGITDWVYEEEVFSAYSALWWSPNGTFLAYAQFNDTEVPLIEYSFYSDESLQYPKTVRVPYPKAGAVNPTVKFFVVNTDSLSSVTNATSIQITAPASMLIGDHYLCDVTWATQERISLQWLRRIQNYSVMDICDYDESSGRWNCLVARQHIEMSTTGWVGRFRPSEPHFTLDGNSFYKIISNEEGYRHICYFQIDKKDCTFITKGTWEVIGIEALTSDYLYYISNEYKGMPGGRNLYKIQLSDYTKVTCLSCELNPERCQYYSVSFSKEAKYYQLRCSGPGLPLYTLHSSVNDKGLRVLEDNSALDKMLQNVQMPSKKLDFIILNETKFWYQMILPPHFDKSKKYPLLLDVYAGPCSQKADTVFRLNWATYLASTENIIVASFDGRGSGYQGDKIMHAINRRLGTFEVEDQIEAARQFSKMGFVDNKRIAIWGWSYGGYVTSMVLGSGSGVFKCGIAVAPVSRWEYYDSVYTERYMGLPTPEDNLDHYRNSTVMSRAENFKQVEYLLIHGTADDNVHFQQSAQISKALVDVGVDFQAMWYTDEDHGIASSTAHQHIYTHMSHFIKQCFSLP

Dipeptidyl peptidase 4 [9] = biological target: T1, Dipeptidyl peptidase 4
Target sequence in this assay (P27487 whole entry): as above

[10] = Bioavailability in monkey; format: ADME, organism-based, Macaca mulatta; settings: rhesus monkey, in vivo
[11] = Bioavailability in rat; format: ADME, organism-based; settings: in vivo
[12] = Bioavailability in dog; format: ADME, organism-based, Canis lupus familiaris; settings: in vivo
Homo sapiens [13] = organism: Homo sapiens; experiment: Selectivity index, ratio of IC50 for DPP-8 (unknown origin) to IC50 for DPP-4 (unknown origin)
Mus musculus [14] = experiment: Hypoglycemic activity in C57BL/6J mouse assessed as reduction in blood glucose level at 5 mg/kg, iv measured for 180 mins; format: ADME, organism-based; parameters: scale not given: the % may be the effect or the level left; settings: in vivo, 3 h
Mus musculus [15] = experiment: Hypoglycemic activity in C57BL/6J mouse assessed as reduction in blood glucose level at 10 mg/kg, iv measured for 180 mins; format: ADME, organism-based; parameters: scale not given: the % may be the effect or the level left; settings: in vivo, 3 h
Homo sapiens [16] = organism: Homo sapiens; experiment: Selectivity index, ratio of IC50 for DPP-9 (unknown origin) to IC50 for DPP-4 (unknown origin)
Mus musculus [17] = experiment: Hypoglycemic activity in C57BL/6J mouse assessed as reduction in blood glucose level at 20 mg/kg, iv measured for 180 mins; format: ADME, organism-based; parameters: scale not given: the % may be the effect or the level left; settings: in vivo, 3 h
Dipeptidyl peptidase 4 [18] = biological target: T1, Dipeptidyl peptidase 4; experiment: Inhibition of human recombinant DPP-4 using H-Gly-Pro-aminomethylcoumarin as substrate at 100 uM relative to control
Target sequence in this assay (P27487 whole entry, looked up): as the sequence (P27487 whole entry) above

Mus musculus [19] = experiment: Hypoglycemic activity in ICR mouse assessed as reduction in blood glucose level at 30 mg/kg measured at 120 mins; format: ADME, organism-based; parameters: scale not given: the % may be the effect or the level left; settings: in vivo, 2 h
Dipeptidyl peptidase 4 [20] = biological target: T1, Dipeptidyl peptidase 4; experiment: Inhibition of human recombinant DPP-4 using H-Gly-Pro-aminomethylcoumarin as substrate
Target sequence in this assay (P27487 whole entry): as above

Homo sapiens [21] = organism: Homo sapiens; experiment: Selectivity index, ratio of IC50 for human recombinant DPP-4 to IC50 for human recombinant DPP-9
Mus musculus [22] = experiment: Hypoglycemic activity in ICR mouse assessed as reduction in blood glucose level at 3 mg/kg measured at 120 mins; format: ADME, organism-based; parameters: scale not given: the % may be the effect or the level left; settings: in vivo, 2 h
Homo sapiens [23] = organism: Homo sapiens; experiment: Selectivity index, ratio of IC50 for human recombinant DPP-4 to IC50 for human recombinant DPP-8
Mus musculus [24] = experiment: Hypoglycemic activity in KKAy mouse assessed as reduction in blood glucose level at 30 mg/kg; format: ADME, organism-based; parameters: scale not given: the % may be the effect or the level left; settings: in vivo
Mus musculus [25] = experiment: Hypoglycemic activity in KKAy mouse assessed as reduction in blood glucose level at 3 mg/kg; format: ADME, organism-based; parameters: scale not given: the % may be the effect or the level left; settings: in vivo
Mus musculus [26] = experiment: Hypoglycemic activity in C57BL/6J mouse assessed as reduction in blood glucose level at 3 mg/kg, iv measured for 180 mins; format: ADME, organism-based; parameters: scale not given: the % may be the effect or the level left; settings: in vivo, 3 h
Rattus norvegicus = experiment: Antihyperglycemic activity in STZ-induced diabetic rat model assessed as reduction in blood glucose level at 100 mg/kg, po measured upto 24 hrs; format: functional; parameters: scale not given: the % may be the effect or the level left
Mus musculus [27] = experiment: Antidiabetic activity in C57BL/6J mouse assessed as decrease in AUC of glucose at 3 mg/kg, po; format: functional; parameters: scale not given: the % may be the effect or the level left
[28] = Half life in Sprague-Dawley rat at 3 mg/kg, po; format: ADME, organism-based; settings: in vivo
[29] = Cmax in ICR mouse at 1 to 10 mg/kg, po; format: ADME, organism-based; parameters: route po; settings: in vivo, dose 1-10 mg/kg
[30] = Half life in ICR mouse at 1 to 10 mg/kg, po; format: ADME, organism-based; settings: in vivo, dose 1-10 mg/kg
[31] = Tmax in ICR mouse at 1 to 10 mg/kg, po; format: ADME, organism-based; settings: in vivo, dose 1-10 mg/kg
[32] = MRT in ICR mouse at 1 to 10 mg/kg, po; format: ADME, organism-based; settings: in vivo, dose 1-10 mg/kg
[33] = Metabolic stability in human liver microsomes assessed as intrinsic clearance; format: ADME, Microsome; settings: read-out: CLH

Sequence of Dipeptidyl peptidase 8 (Q6V1X1 whole entry): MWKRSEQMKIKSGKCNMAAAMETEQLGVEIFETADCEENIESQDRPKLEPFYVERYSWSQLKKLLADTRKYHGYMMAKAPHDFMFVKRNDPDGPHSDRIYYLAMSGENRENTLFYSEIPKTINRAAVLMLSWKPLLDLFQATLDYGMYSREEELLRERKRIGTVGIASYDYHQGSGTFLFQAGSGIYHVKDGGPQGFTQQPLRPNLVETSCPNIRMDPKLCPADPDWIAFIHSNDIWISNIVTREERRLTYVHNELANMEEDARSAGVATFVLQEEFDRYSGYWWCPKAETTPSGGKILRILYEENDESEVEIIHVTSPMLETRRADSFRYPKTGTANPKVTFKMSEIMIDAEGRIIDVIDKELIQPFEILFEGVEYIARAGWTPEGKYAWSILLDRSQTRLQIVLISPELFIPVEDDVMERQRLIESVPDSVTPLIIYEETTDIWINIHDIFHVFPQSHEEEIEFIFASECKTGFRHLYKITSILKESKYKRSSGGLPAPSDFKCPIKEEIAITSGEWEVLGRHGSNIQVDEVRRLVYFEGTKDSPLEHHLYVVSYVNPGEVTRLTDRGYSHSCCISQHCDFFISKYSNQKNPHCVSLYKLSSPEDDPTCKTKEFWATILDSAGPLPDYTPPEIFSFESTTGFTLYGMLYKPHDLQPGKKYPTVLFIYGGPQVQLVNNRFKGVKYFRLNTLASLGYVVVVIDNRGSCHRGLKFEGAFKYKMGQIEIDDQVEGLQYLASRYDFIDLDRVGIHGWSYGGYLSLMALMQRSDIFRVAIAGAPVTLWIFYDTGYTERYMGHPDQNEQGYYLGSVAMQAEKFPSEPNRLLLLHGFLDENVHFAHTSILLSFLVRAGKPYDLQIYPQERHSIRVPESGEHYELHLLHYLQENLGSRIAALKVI
Sequence of Dipeptidyl peptidase 9 (Q86TI2 whole entry): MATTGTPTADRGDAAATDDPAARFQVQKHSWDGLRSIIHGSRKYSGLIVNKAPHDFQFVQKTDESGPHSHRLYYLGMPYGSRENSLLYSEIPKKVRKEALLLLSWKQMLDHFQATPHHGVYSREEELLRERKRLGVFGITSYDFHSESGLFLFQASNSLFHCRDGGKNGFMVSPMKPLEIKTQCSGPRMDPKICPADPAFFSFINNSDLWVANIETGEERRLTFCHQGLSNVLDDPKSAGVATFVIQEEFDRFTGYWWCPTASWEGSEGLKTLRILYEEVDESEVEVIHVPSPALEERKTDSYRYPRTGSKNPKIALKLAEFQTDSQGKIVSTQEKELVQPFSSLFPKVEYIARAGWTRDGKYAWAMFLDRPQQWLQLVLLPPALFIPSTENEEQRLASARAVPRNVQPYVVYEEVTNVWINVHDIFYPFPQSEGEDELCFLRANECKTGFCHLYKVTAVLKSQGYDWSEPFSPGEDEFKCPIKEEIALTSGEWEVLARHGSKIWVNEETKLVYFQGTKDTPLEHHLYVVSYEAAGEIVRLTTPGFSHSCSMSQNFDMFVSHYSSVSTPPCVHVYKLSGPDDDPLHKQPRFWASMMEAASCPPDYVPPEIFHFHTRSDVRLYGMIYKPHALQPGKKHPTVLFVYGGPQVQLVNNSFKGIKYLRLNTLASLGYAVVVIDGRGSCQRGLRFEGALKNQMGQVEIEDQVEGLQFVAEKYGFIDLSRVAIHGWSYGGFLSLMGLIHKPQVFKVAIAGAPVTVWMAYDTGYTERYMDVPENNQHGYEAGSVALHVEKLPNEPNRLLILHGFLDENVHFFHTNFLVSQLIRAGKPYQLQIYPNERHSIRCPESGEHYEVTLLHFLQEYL

Question: For `CC#CCn1c(N2CCC[C@@H](N)C2)cc(=O)n(Cc2ccc(Cl)c(C(=O)N(C)C)c2)c1=O`, which Stability [1] is on record?
Answer: 101.83%

Question: And the Activity (Mus musculus [2])?
Answer: 16.4%

Question: What about the bioavailability [3] of the same compound?
Answer: 27.3%

Question: And the half-life [4]?
Answer: 11.1 h

Question: And the pIC50 (Dipeptidyl peptidase 8)?
Answer: < 4.00

Question: And the clearance [5]?
Answer: 5.83 mL/min/kg

Question: And the pIC50 (Dipeptidyl peptidase 9)?
Answer: < 4.00

Question: And the viability at 72 h [6]?
Answer: 100%

Question: And the Stability [7]?
Answer: 99.38%

Question: With `Cc1ccc2cc(CNc3nc(C)cs3)n(/N=C/c3ccc(O)cc3)c(=O)c2c1` as the compound, how does the pIC50 (Dipeptidyl peptidase 4 [8]) read?
Answer: 8.95

Question: With `CC1c2nnc(C(F)(F)F)n2CCN1C(=O)C[C@H](N)Cc1cc(F)c(F)cc1F.Cl` (some centres not stated) as the compound, how does the pIC50 (Dipeptidyl peptidase 4 [9]) read?
Answer: 8.37

Question: What about the bioavailability [10] of the same compound?
Answer: 87%

Question: And the bioavailability [11]?
Answer: 57%

Question: And the bioavailability [12]?
Answer: 91%

Question: Which Ratio IC50 (Homo sapiens [13]) does the source give for `Brc1nc2n(n1)CC(c1cc3ccccc3o1)=NN2` here?
Answer: 8

Question: And the pIC50 (Dipeptidyl peptidase 4 [9])?
Answer: 4.55

Question: And the Activity (Mus musculus [14])?
Answer: 19.6%

Question: What about the Activity (Mus musculus [15]) of the same compound?
Answer: 33.6%

Question: What about the Ratio IC50 (Homo sapiens [16]) of the same compound?
Answer: 8

Question: What about the Activity (Mus musculus [17]) of the same compound?
Answer: 47.1%

Question: For `NCc1c(-c2ccc(Cl)cc2Cl)nc2ccccn12`, which inhibition (Dipeptidyl peptidase 4 [18]) is on record?
Answer: 75%

Question: And the Activity (Mus musculus [19])?
Answer: 33.53%

Question: What about the pIC50 (Dipeptidyl peptidase 4 [20]) of the same compound?
Answer: 6.89

Question: What about the Ratio IC50 (Homo sapiens [21]) of the same compound?
Answer: 192

Question: What about the Activity (Mus musculus [22]) of the same compound?
Answer: 35%

Question: And the Ratio IC50 (Homo sapiens [23])?
Answer: 215

Question: Which Activity (Mus musculus [24]) does the source give for `N#C[C@@H]1CCCN1C(=O)CNC1C[C@H]2CC(O)C[C@H]2C1` (some centres not stated) here?
Answer: 52.2%

Question: What about the Activity (Mus musculus [25]) of the same compound?
Answer: 61.9%

Question: Which results are given for `N[C@@H](CC(=O)N1CCn2c(nnc2C(F)(F)F)C1)Cc1cc(F)c(F)cc1F` [SITAGLIPTIN]?
Answer: Activity (Mus musculus [26]): 27.8%; Activity (Rattus norvegicus): 31.9%; Activity (Mus musculus [27]): 17.9%

Question: With `N#C[C@@H]1C[C@H]2[C@H](CC2(F)F)N1C(=O)[C@@H](N)C12CC3CC(CC(O)(C3)C1)C2` as the compound, how does the half-life [28] read?
Answer: 0.92 h

Question: For `N[C@@H](CCNC(=O)N1CCn2c(nnc2C(F)(F)F)C1)Cc1cc(F)c(F)cc1F`, which Cmax [29] is on record?
Answer: 719 ng/mL

Question: What about the half-life [30] of the same compound?
Answer: 1.03 h

Question: What about the Tmax [31] of the same compound?
Answer: 2 h

Question: And the MRT [32]?
Answer: 2.72 h

Question: And the CLint scaled [33]?
Answer: < 100 mL/min/kg
